Test results published in patent US20250145642A1, “BICYCLIC HETEROARENES AND METHODS OF THEIR USE” (Kineta, Inc., priority 2021, published 2025).

molecular target: full-length human PIKFYVE (N-terminal GST-fusion) (Homo sapiens (Human), UniProt Q9Y2I7, L932S/Q1183K/Q995L/S1033A/S696N/T998S); assay: PIKfyve biochemical assay (ADP-Glo Kinase assay, Carna Biosciences); conditions: ADP-Glo, full-length human GST-PIKFYVE, 10 μM to 3 nM; read-out: hPIKfyve IC50
Method in brief: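 Baculovirus-expressed, glutathione-purified GST-tagged full-length human PIKFYVE (S696N/L932S/Q995L/T998S/S1033A/Q1183K) reacted with substrate and ATP in 50 mM MOPS, 1 mM DTT, pH 7.2, 1 h at room temperature. ADP formed read by ADP-Glo luminescence.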

full-length human PIKFYVE (N-terminal GST-fusion), sequence (Q9Y2I7 whole entry S696N/L932S/Q995L/T998S/S1033A/Q1183K, the tested form may be a part): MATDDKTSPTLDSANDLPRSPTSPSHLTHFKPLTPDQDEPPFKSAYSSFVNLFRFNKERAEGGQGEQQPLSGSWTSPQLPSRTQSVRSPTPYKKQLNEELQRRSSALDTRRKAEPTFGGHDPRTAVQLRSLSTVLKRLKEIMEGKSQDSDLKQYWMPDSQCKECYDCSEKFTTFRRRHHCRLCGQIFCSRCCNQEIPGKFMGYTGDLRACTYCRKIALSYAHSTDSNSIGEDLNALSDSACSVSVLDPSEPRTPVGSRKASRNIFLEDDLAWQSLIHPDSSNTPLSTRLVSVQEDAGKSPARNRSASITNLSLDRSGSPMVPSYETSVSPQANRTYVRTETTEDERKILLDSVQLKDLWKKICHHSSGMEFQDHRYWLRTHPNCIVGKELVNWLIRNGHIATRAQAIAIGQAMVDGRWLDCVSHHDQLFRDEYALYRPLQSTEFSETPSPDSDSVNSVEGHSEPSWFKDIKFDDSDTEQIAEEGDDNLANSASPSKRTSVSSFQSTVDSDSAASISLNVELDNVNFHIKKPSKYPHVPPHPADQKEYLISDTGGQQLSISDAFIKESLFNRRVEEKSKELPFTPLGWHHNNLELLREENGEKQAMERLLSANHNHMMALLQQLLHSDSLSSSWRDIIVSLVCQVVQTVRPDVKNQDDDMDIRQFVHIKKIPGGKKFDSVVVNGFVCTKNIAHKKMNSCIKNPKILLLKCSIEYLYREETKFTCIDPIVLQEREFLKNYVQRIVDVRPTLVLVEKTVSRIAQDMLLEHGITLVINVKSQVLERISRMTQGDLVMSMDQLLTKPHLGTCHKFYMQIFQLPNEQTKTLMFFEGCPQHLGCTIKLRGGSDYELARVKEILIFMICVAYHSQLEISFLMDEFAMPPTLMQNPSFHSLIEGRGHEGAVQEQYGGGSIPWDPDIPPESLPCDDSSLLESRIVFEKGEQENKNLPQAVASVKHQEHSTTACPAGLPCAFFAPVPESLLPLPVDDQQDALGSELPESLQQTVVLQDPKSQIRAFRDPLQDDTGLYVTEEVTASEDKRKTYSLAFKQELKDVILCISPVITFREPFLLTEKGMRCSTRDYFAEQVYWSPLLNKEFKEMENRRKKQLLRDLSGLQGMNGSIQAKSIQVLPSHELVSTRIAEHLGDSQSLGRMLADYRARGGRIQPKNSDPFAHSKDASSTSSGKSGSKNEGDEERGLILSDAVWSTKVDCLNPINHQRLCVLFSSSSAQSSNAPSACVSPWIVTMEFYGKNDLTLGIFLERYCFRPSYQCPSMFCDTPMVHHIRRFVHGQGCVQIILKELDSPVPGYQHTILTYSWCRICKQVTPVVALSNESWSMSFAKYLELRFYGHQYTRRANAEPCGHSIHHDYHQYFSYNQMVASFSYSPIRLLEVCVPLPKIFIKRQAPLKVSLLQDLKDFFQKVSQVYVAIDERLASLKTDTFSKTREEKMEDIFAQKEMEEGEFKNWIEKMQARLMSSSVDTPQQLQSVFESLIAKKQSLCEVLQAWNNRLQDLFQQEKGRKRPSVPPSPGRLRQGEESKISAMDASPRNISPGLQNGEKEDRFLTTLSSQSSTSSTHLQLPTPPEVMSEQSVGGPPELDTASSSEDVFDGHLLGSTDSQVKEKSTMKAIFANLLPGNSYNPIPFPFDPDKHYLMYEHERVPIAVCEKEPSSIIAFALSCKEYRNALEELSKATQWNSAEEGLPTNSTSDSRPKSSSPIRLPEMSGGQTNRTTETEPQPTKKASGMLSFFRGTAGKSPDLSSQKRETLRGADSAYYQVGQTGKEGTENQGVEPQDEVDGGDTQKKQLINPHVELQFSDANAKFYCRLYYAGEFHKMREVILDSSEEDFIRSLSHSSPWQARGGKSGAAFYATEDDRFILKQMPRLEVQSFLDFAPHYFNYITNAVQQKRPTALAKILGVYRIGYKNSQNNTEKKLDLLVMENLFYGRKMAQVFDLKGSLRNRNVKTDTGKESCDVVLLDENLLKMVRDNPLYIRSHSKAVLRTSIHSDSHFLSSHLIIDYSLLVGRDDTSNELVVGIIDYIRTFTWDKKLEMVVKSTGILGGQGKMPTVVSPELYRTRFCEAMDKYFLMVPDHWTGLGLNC

**Q.** With c1ccc(N2CCc3c(C4CCOC4)nc(N4CCOCC4)nc32)cc1 (stereo not drawn) [Compound 87, 4-(7-phenyl-4-(tetrahydrofuran-3-yl)-6,7-dihydro-5H-pyrrolo[2,3-d]pyrimidin-2-yl)morpholine] as the molecule, how does the IC50 read?
**A.** Its IC50 is 0.01 to 0.1 µM.

**Q.** Which IC50 does the source give for Cc1cccc(CN2CCc3c(Cl)nc(N4CCOCC4)nc32)c1 [Compound 41, 4-(4-chloro-7-(3-methylbenzyl)-6,7-dihydro-5H-pyrrolo[2,3-d]pyrimidin-2-yl)morpholine] here?
**A.** Its IC50 is over 10 µM.

**Q.** For c1cncc(N2CCc3c(C4CCCNC4)nc(N4CCOCC4)nc32)c1 (stereo not drawn) [Compound 114, 4-(4-(piperidin-3-yl)-7-(pyridin-3-yl)-6,7-dihydro-5H-pyrrolo[2,3-d]pyrimidin-2-yl)morpholine], which IC50 is on record?
**A.** The IC50 was 1 to 10 µM.

**Q.** For c1ccc(N2CCc3c(OCc4cnccn4)nc(N4CCOCC4)nc32)cc1 [Compound 15, 4-(7-phenyl-4-(pyrazin-2-ylmethoxy)-6,7-dihydro-5H-pyrrolo[2,3-d]pyrimidin-2-yl)morpholine], which IC50 is on record?
**A.** Its IC50 is 0.01 to 0.1 µM.

**Q.** CN1CCCC(COc2nc(N3CCOCC3)nc3c2CCN3CC(C)(C)O)C1 (stereo not drawn) [Compound 40, 2-methyl-1-(4-((1-methylpiperidin-3-yl)methoxy)-2-morpholino-6H-pyrrolo[2,3-d]pyrimidin-7(6H)-yl)propan-2-ol] was tested. Which IC50 did it give?
**A.** Its IC50 is over 10 µM.

**Q.** For CN1CC(c2nc(N3CCOCC3)nc3c2CCN3c2ccccc2)C1 [Compound 117, 4-(4-(1-methylazetidin-3-yl)-7-phenyl-6,7-dihydro-5H-pyrrolo[2,3-d]pyrimidin-2-yl)morpholine], which IC50 is on record?
**A.** The IC50 was 0.1 to 1 µM.

**Q.** With c1ccc(N2CCc3c(COCc4ccccn4)nc(N4CCOCC4)nc32)cc1 [Compound 62, 4-(7-phenyl-4-((pyridin-2-ylmethoxy)methyl)-6,7-dihydro-5H-pyrrolo[2,3-d]pyrimidin-2-yl)morpholine] as the molecule, how does the IC50 read?
**A.** The IC50 was 0.01 to 0.1 µM.

**Q.** How did the IC50 turn out when c1ccc(N2CCc3c(OCCC4CCCO4)nc(N4CCOCC4)nc32)cc1 (stereo not drawn) [Compound 30, 4-(7-phenyl-4-(2-(tetrahydrofuran-2-yl)ethoxy)-6,7-dihydro-5H-pyrrolo[2,3-d]pyrimidin-2-yl)morpholine] was run?
**A.** The IC50 was 0.1 to 1 µM.

**Q.** With c1cncc(N2CCc3c(C4CCOC4)nc(N4CCOCC4)nc32)c1 (stereo not drawn) [Compound 89, 4-(7-(pyridin-3-yl)-4-(tetrahydrofuran-3-yl)-6,7-dihydro-6H-pyrrolo[2,3-d]pyrimidin-2-yl)morpholine] as the molecule, how does the IC50 read?
**A.** Its IC50 is 0.1 to 1 µM.

**Q.** For CN1CCCC(c2nc(N3CCOCC3)nc3c2ncn3-c2cccnc2)C1 (stereo not drawn) [Compound 127, 4-(6-(1-methylpiperidin-3-yl)-9-(pyridin-3-yl)-9H-purin-2-yl)morpholine], which IC50 is on record?
**A.** The IC50 was over 10 µM.

**Q.** How did the IC50 turn out when Cc1cccc(/C=N/Nc2nc(N3CCOCC3)nc3c2CCN3c2cccnc2)c1 [Compound 82, (E)-4-(4-(2-(3-methylbenzylidene)hydrazineyl)-7-(pyridin-3-yl)-6,7-dihydro-6H-pyrrolo[2,3-d]pyrimidin-2-yl)morpholine] was run?
**A.** The IC50 was under 0.01 µM.

**Q.** For c1ccc(N2CCc3c(C4CCNC4)nc(N4CCOCC4)nc32)cc1 (stereo not drawn) [Compound 116, 4-(7-phenyl-4-(pyrrolidin-3-yl)-6,7-dihydro-5H-pyrrolo[2,3-d]pyrimidin-2-yl)morpholine], which IC50 is on record?
**A.** Its IC50 is 0.01 to 0.1 µM.

**Q.** How did the IC50 turn out when CN1CCC(N2CCc3c(OCc4cccnc4)nc(N4CCOCC4)nc32)CC1 [Compound 42, 4-(7-(1-methylpiperidin-4-yl)-4-(pyridin-3-ylmethoxy)-6,7-dihydro-5H-pyrrolo[2,3-d]pyrimidin-2-yl)morpholine] was run?
**A.** The IC50 was over 10 µM.

**Q.** For O=c1ccccn1-c1nc(N2CCOCC2)nc2c1CCN2c1cccnc1 [Compound 52, 1-(2-morpholino-7-(pyridin-3-yl)-6,7-dihydro-5H-pyrrolo[2,3-d]pyrimidin-4-yl)pyridin-2(1H)-one], which IC50 is on record?
**A.** The IC50 was 1 to 10 µM.

**Q.** With c1ccc(N2CCc3c(-c4cnco4)nc(N4CCOCC4)nc32)cc1 [Compound 101, 4-(4-(oxazol-5-yl)-7-phenyl-6,7-dihydro-5H-pyrrolo[2,3-d]pyrimidin-2-yl)morpholine] as the molecule, how does the IC50 read?
**A.** The IC50 was 0.01 to 0.1 µM.

**Q.** c1ccc(N2CCc3c(OCc4ccccn4)nc(N4CCOCC4)nc32)cc1 [Compound 24, 4-(7-phenyl-4-(pyridin-2-ylmethoxy)-6,7-dihydro-5H-pyrrolo[2,3-d]pyrimidin-2-yl)morpholine] was tested. Which IC50 did it give?
**A.** Its IC50 is 0.01 to 0.1 µM.

**Q.** How did the IC50 turn out when c1cncc(N2CCc3c(OCC4CCOCC4)nc(N4CCOCC4)nc32)c1 [Compound 151, 4-{4-[(oxan-4-yl)methoxy]-7-(pyridin-3-yl)-5H,6H,7H-pyrrolo[2,3-d]pyrimidin-2-yl}morpholine] was run?
**A.** The IC50 was 0.1 to 1 µM.

**Q.** With CC(=O)N1CCC(c2nc(N3CCOCC3)nc3c2CCN3c2ccccc2)CC1 [Compound 120, 1-(4-(2-morpholino-7-phenyl-6,7-dihydro-5H-pyrrolo[2,3-d]pyrimidin-4-yl)piperidin-1-yl)ethan-1-one] as the molecule, how does the IC50 read?
**A.** The IC50 was 0.01 to 0.1 µM.

**Q.** Which IC50 does the source give for O=C1COc2c(OCc3cccnc3)nc(N3CCOCC3)nc2N1c1ccccc1 [Compound 130, 2-morpholino-8-phenyl-4-(pyridin-3-ylmethoxy)-6H-pyrimido[5,4-b][1,4]oxazin-7(8H)-one] here?
**A.** The IC50 was 0.1 to 1 µM.

**Q.** How did the IC50 turn out when COc1cccc(-c2nccc(-c3nc(N4CCOCC4)nc4c3CCN4c3cccnc3)n2)c1 [Compound 123, 4-(4-(2-(3-methoxyphenyl)pyrimidin-4-yl)-7-(pyridin-3-yl)-6,7-dihydro-5H-pyrrolo[2,3-d]pyrimidin-2-yl)morpholine] was run?
**A.** Its IC50 is 0.1 to 1 µM.

**Q.** With c1cncc(N2CCc3c(OCC4CCCO4)nc(N4CCOCC4)nc32)c1 (stereo not drawn) [Compound 23, 4-(7-(pyridin-3-yl)-4-((tetrahydrofuran-2-yl)methoxy)-6,7-dihydro-6H-pyrrolo[2,3-d]pyrimidin-2-yl)morpholine] as the molecule, how does the IC50 read?
**A.** The IC50 was 0.1 to 1 µM.

**Q.** How did the IC50 turn out when c1ccc(N2CCc3c(OCc4ccncc4)nc(N4CCOCC4)nc32)cc1 [Compound 26, 4-(7-phenyl-4-(pyridin-4-ylmethoxy)-6,7-dihydro-5H-pyrrolo[2,3-d]pyrimidin-2-yl)morpholine] was run?
**A.** The IC50 was 0.1 to 1 µM.

**Q.** For CN1CCC(c2nc(N3CCOCC3)nc3c2CCN3c2ccccc2)C1 (stereo not drawn) [Compound 121, 4-(4-(1-methylpyrrolidin-3-yl)-7-phenyl-6,7-dihydro-H-pyrrolo[2,3-d]pyrimidin-2-yl)morpholine], which IC50 is on record?
**A.** Its IC50 is 0.1 to 1 µM.

same assay, conditions: values plotted in FIG. 7; read-out: PIKFYVE Biochemistry (IC50)

**Q.** Which IC50 does the source give for Fc1cccc(-c2ccnn2-c2nc(N3CCOCC3)c3ncccc3n2)c1 here?
**A.** The IC50 was over 10 µM.

test system: PIKFYVE TDP-43 yeast strain; assay: Propidium iodide viability assay, PIKFYVE TDP-43 yeast strain; format: cell-based; conditions: Saccharomyces cerevisiae; PIKFYVE TDP-43 yeast strain, reduction in PI-positive cells, highest concentration 15 μM; read-out: BIKFYVE TDP-43 (IC50)
Source text: Generation of TDP-43 yeast model expressing human PIKfyve. Human PIKFYVE (“entry clone”) was cloned into pAG416GPDccdB (“destination vector”) according to standard Gateway cloning protocols (Invitrogen, Life Technologies). The resulting pAG416GPD-PIKFYVE plasmids were amplified in E. coli and plasmid identity confirmed by restriction digest and Sanger sequencing. Lithium acetate/polyethylene glycol-based transformation was used to introduce the above PIKFYVE plasmid into a BY4741 yeast strain auxotrophic for the ura3 gene and deleted for two transcription factors that regulate the xenobiotic efflux pumps, a major efflux pump, and FAB1, the yeast ortholog of PIKFYVE (MATa, snq2::KILeu2; pdr3::KIura3;pdr1::NATMX; fab1::G418^R, his 3;leu2;ura3;met15;LYS2+) (FIG. 2). Transformed yeast were plated on solid agar plates with complete synthetic media lacking uracil (CSM-ura) and containing 2% glucose. Individual colonies harboring the control or PIKFYVE TDP-43 plasmids were recovered. A plasmid containing wild-type TDP-43 under the transcriptional control of the GAL1 promoter and containing the hygromycin-resistance gene as a selectable marker was transformed into the fab1::G418^R pAG416GPD-PIKFYVE yeast strain (FIG. 1). Transformed yeast were plated on CSM-ura containing 2% glucose and […] G418 after overnight recovery in media lacking antibiotic. Multiple independent isolates were further evaluated for cytotoxicity and TDP-43 expression levels.
Viability Assay. A control yeast strain with the wild-type yeast FAB1 gene and TDP-43 (“FAB1 TDP-43”, carries empty pAG416 plasmid), and the “PIKFYVE TDP-43” yeast strain, were assessed for toxicity using a propidium iodide viability assay. Both yeast strains were transferred from solid CSM-ura/2% glucose agar plates into 3 mL of liquid CSM-ura/2% glucose media for 6-8 hours at 30° C. with aeration. Yeast cultures were then diluted to an optical density at 600 nm wavelength (OD600) of 0.005 in 3 mL of CSM-ura/2% raffinose and grown overnight at 30° C. with aeration to an OD600 of 0.3-0.8. Log-phase overnight cultures were diluted to OD600 of 0.005 in CSM-ura containing either 2% raffinose or galactose and 150 μL dispensed into each well of a flat bottom 96-well plates. Compounds formulated in 100% dimethyl sulfoxide (DMSO) were serially diluted in DMSO and 1.5 μL diluted compound transferred to the 96-well plates using a multichannel pipet. Wells containing DMSO alone were also evaluated as controls for compound effects. Tested concentrations ranged from 15 μM to 0.11 μM. Cultures were immediately mixed to ensure compound distribution and covered plates incubated at 30° C. for 24 hours in a stationary, humified incubator.
Upon the completion of incubation, cultures were assayed for viability using propidium iodide (PI) to stain for dead/dying cells. A working solution of PI was made where, for each plate, 1 μL of 10 mM PI was added to 10 mL of CSM-ura (raffinose or galactose). The final PI solution (50 μL/well) was dispensed into each well of a new round bottom 96-well plate. The overnight 96-well assay plate was then mixed with a multichannel pipet and 50 μL transferred to the PI-containing plate. This plate was then incubated for 30 minutes at 30° C. in the dark. A benchtop flow cytometer (Miltenyi MACSquant) was then used to assess red fluorescence (B2 channel), forward scatter, and side scatter (with following settings: gentle mix, high flow rate, fast measurement, 10,000 events). Intensity histograms were then gated for “PI-positive” or “PI-negative” using the raffinose and galactose cultures treated with DMSO as controls. The DMSO controls for raffinose or galactose-containing cultures were used to determine the window of increased cell death and this difference set to 100. All compounds were similarly gated and then compared to this maximal window to establish the percent reduction in PI-positive cells.
Biochemical and Efficacy Assays. […]

**Q.** How did the IC50 turn out when Oc1cc(C2CCOCC2)nn1-c1cc(N2CCOCC2)n2nc(-c3ccncc3)cc2n1 was run?
**A.** The IC50 was 9.11 µM.

**Q.** Cc1cccc(/C=N/Nc2nc(N3CCOCC3)c3nc(-c4ccncc4)n(C)c3n2)c1 was tested. Which IC50 did it give?
**A.** Its IC50 is 4.72 µM.

**Q.** How did the IC50 turn out when c1ccc(N2CCc3c(OCc4cccnc4)nc(N4CCOCC4)nc32)cc1 [drawing 539] was run?
**A.** The IC50 was 2.69 µM.

**Q.** How did the IC50 turn out when Fc1cccc(-c2ccnn2-c2nc(N3CCOCC3)c3ncccc3n2)c1 was run?
**A.** Its IC50 is 5.75 µM.

**Q.** For c1ccc(-c2cccc(-c3cc(N4CCOCC4)n4nc(-c5ccncc5)cc4n3)n2)cc1, which IC50 is on record?
**A.** Its IC50 is 0.23 µM.

**Q.** How did the IC50 turn out when Cc1cccc(/C=N/Nc2nc(N3CCOCC3)c3ncccc3n2)c1 was run?
**A.** Its IC50 is 8.21 µM.

**Q.** For Cc1cccc(/C=N/Nc2cc(N3CCOCC3)nc(OCCc3ccc(CN)cc3)n2)c1, which IC50 is on record?
**A.** Its IC50 is 1.12 µM.

**Q.** How did the IC50 turn out when c1ccc(-c2ccnc(-c3cc(N4CCOCC4)nc(OCc4ccncc4)n3)n2)cc1 was run?
**A.** Its IC50 is 1.45 µM.

**Q.** How did the IC50 turn out when Oc1cc(-c2ccccc2)nn1-c1cc(N2CCOCC2)n2nc(-c3ccncc3)nc2n1 was run?
**A.** Its IC50 is 0.693 µM.
